Converted amounts (≈) assume the structure as drawn. Read-outs that look alike come from different tables or passages of the source.
Key:
[1] = system: human leukemia HL-60 cells; test: HL-60 cell growth inhibition (72 h); format: cell-based; conditions: HL-60, 72 h, read-out: ID50, M [HL-60 cell growth (72 h)] (A)
Description: For cell growth inhibition studies, HL-60 cells […]) were grown in RPMI 1640 media at 37° C. in humidified 5% CO2 for 72 h. Viable cells were counted with the trypan blue exclusion method. The fractional inhibitions at four or five concentrations of compounds (in 0.2% DMSO) were analyzed with a median-effect plot (Chou, T.-C., et al., Adv. Enzyme Regul. 22:27 (1984)) by using a computer program. (Chou, J.; Chou, T.-C. Dose-Effect Analyses with Microcomputer. Quantitation of ID50, LD50, Synergism, Antagonism, Low-dose Risk, Receptor-Binding and Enzyme Kinetics; IBM-PC Series, Elsevier-Biosoft, Elsevier Scientific: Cambridge, U.K., (1986)). The median-effect concentration (ID50) was automatically determined for the x intercept of the median-effect plot. Cell growth in the absence of a compound and in the presence of DMSO was used as a control. DMSO (0.2%) alone inhibited cell growth 3.8±1.2% during the 72-h incubation period.

[2] = system: DNA (native and thermally denatured); test: Spectrophotometric study of DNA interaction; format: binding, calf thymus; conditions: for interaction with DNA on increase of salt concentration: Na concentration increased from 0.01 to 0.1 M
Description: Some representative compounds were studied for their ability to interact with nucleic acids in solution by comparison of the electronic spectrum of drug alone with that of the drug in the presence of an excess of nucleic acid. All drugs studied have an absorption band in the visible region, separate from the absorption band of the nucleic acids, and therefore any changes in band intensity and position were indicative of drug chromophore-DNA interaction.
Absorption spectra were measured with an IBM 9410 UV-visible spectrometer interfaced to an HP 9826 computer. Small volumes of the stock drug solutions (2 mg/mL in Me2 SO) were added to 2 mL of buffer (0.01 or 0.1 M NaCl, 5 mM Hepes, pH 7) to obtain a final drug concentration of 5-15 μM, or to the solution of native or thermally denatured DNA (0.2 and 0.1 mM, respectively) in the buffer. After incubation at room temperature for 10 min, the spectra were recorded in the 300-600 nm range (increment 1 nm) and corrected by subtracting the spectrum of the blank which was measured before addition of the drug.

[3] = system: [^3 H]TdR incorporation into DNA in HL-60 cells; test: Inhibition of [3H]TdR incorporation into DNA in HL-60 cells (initial 30 min); format: cell-based, human; conditions: for IC50: HL-60, initial 30 min exposure, read-out: ID50, M (HL-60 TdR into DNA (B)); for B/A: ratio of ID50 for TdR incorporation (B) to ID50 for cell growth (A), HL-60
Description: For precursor incorporation studies, each compound at four to six concentrations (0.2% DMSO) was preincubated with HL-60 cells (2.5×10^6 /Ml) for 15 min prior to the addition of [^3 H-methyl]TdR (1 μCi, 0.15 nmol/mL) and was incubated for 30 min. […] The incorporation of radioactivity in DNA in the absence of an analogue in the presence of DMSO was used as a control.

[4] = system: mouse leukemia L1210 cells; test: Inhibition of L1210 cell growth; format: cell-based
Description: Preliminary biological data for inhibiting cell growth of murine L1210 leukemic cells and human acute promyelocytic leukemia cells (HL-60) during 72 h of exposure to the compounds are given in Table IV. The potencies for inhibiting [^3 H]TdR incorporation into DNA in HL-60 cells during the initial 30-min period are also given in Table IV. It is interesting to note that 1,8-di-O-methyl derivatives are uniformly devoid of activity against L1210 leukemic cells. […] The B/A ratios allow an indirect estimation of whether or not cytotoxicities exerted by these analogues are primarily due to initial inhibition of DNA synthesis. […] Whether these analogues, like m-AMSA, ellipticine, or anthracyclines, act by inhibiting DNA topoisomerase II remains to be explored. […] Our preliminary experiments indicate that the compounds arrest cells in the S and/or G2 phases of the cell cycle (unpublished results).

[5] = Mus musculus, L1210, Table I, read-out: ID50 (the source's name)
[6] = Mus musculus, L1210, Table I, read-out: ID50 (μg/mL)
[7] = Mus musculus, Table IV, L1210, 72 h exposure, read-out: ID50, M (L1210 cell growth)
[8] = Table I, read-out: ID50 (the source's name)
[9] = Table IV, L1210, 72 h exposure, read-out: ID50, M (L1210 cell growth)

Compound: COc1cc(O)c2c(c1)C(=O)c1cc(CNCCCl)cc(O)c1C2=O [XIb-7, 3-[N-(2-chloroethyl)amino]methyl-1,8-dihydroxy-6-methoxy-9,10-anthraquinone]
- IC50 ([1]; Homo sapiens): 9.2 µM
- reversal of DNA induced changes in absorption spectra by Me2SO ([2]; Me2 SO to 1:1 v/v): could be reversed by addition of Me2 SO
- interaction with DNA on increase of salt concentration [2]: lost the ability to interact with DNA
- IC50 ([3]; Homo sapiens, 0.5 h): 220 µM
- B/A [3]: 23.9
- IC50 ([4]; Mus musculus, L1210, 72 h, read-out: ID50, M (L1210 cell growth)): 18000 nM

Compound: CCN(CC)Cc1cc(O)c2c(c1)C(=O)c1cccc(O)c1C2=O [XIa-1, 3-[N,N-diethylamino)methyl-1,8-dihydroxy-9,10-anthraquinone]
- IC50 ([1]; Homo sapiens, 0.2% DMSO): 1.8 µM
- interaction with DNA ([2]; absorption spectra, native and thermally denatured DNA): interact with both native and thermally denatured DNA but more strongly with native DNA
- IC50 ([3]; Homo sapiens, 0.5 h): 14 µM
- B/A [3]: 7.8
- IC50 [4, 5]: 2800 nM
- IC50 [4, 6]: 0.99 µg/mL
- IC50 ([4]; Mus musculus, L1210, Table II, antileukemic activity, read-out: L1210: ID50): 2750 nM
- IC50 [4, 7]: 280000 nM

Compound: COc1cc(O)c2c(c1)C(=O)c1cc(CN(CCCl)CCCl)cc(O)c1C2=O [XIb-3, 3-[N,N-bis(2-chloroethyl)amino]methyl-1,8-dihydroxy-6-methoxy-9,10-anthraquinone]
- IC50 ([1]; 0.2% DMSO): 0.61 µM
- interaction with DNA on increase of salt concentration [2]: lost the ability to interact with DNA
- IC50 [3]: 12 µM
- B/A [3]: 19.7
- ID50 ([4]; Table I): 0.010 mg/L (≈ 0.0236 µM)
- IC50 [4, 8]: 23 nM

Compound: CCNCc1cc(OC)c2c(c1)C(=O)c1cccc(OC)c1C2=O [IXa-5, 3-(N-ethylamino)methyl-1,8-dimethoxy-9,10-anthraquinone]
- IC50 ([1]; Homo sapiens, 0.2% DMSO): 48 µM
- IC50 ([3]; Homo sapiens, 0.5 h): 29 µM
- B/A [3]: 0.60
- IC50 [4, 5]: 3590 nM
- IC50 [4, 6]: 1.3 µg/mL
- IC50 [4, 7]: 1200 nM

Compound: 3-(Dibromomethyl)-1(and 8)-hydroxy-8(and 1)-methoxy-9,10anthraquinone [VIIa]
- IC50 ([1]; 0.2% DMSO): 0.06 µM
- IC50 [3]: 13 µM
- B/A [3]: 217
- IC50 [4, 9]: 0.042 nM

Compound: COc1cc(OC)c2c(c1)C(=O)c1cc(C(Br)Br)cc(OC)c1C2=O [IVb, 6-(Dibromomethyl)-1,3,8-trimethoxy-9,10-anthraquinone]
- IC50 ([1]; Homo sapiens, 0.2% DMSO): 6 µM
- IC50 ([3]; Homo sapiens, 0.5 h): 58 µM
- B/A [3]: 9.7
- IC50 [4, 7]: 41000 nM

Compound: NCc1cc(O)c2c(c1)C(=O)c1cccc(O)c1C2=O [XIa-8]
- IC50 ([1]; Homo sapiens, 0.2% DMSO): 11 µM
- IC50 ([3]; Homo sapiens, 0.5 h): 25 µM
- B/A [3]: 2.3
- IC50 [4, 7]: 8500 nM

Compound: O=C1c2cccc(O)c2C(=O)c2c(O)cc(CN(CCO)CCO)cc21 [XIa-2, 3-[N,N-bis(2-hydroxyethyl)amino] methyl-1,8-dihydroxy-9,10-anthraquinone]
- IC50 ([1]; Homo sapiens, 0.2% DMSO): 3.3 µM
- IC50 ([3]; Homo sapiens, 0.5 h): 14 µM
- B/A [3]: 4.2
- IC50 [4, 5]: 5900 nM
- IC50 [4, 6]: 2.33 µg/mL

Compound: COc1cc(OC)c2c(c1)C(=O)c1cc(CN(CCCl)CCCl)cc(OC)c1C2=O [IXb-3, 3-[N,N-bis(2-chloroethyl)amino]methyl-1,8,6-trimethoxy-9,10-anthraquinone]
- IC50 ([1]; 0.2% DMSO): 2 µM
- IC50 [3]: 8.9 µM
- B/A [3]: 4.5
- ID50 ([4]; Table I): 1.30 mg/L (≈ 2.87 µM)
- IC50 [4, 8]: 2660 nM
- IC50 [4, 9]: 2700 nM

Compound: O=C1c2cccc(O)c2C(=O)c2c(O)cc(CN3CCCC3)cc21 [XIa-13]
- IC50 ([1]; Homo sapiens, 0.2% DMSO): 2.1 µM
- IC50 ([3]; Homo sapiens, 0.5 h): 10 µM
- B/A [3]: 4.8
- IC50 [4, 7]: 1600 nM

Compound: COc1cc(OC)c2c(c1)C(=O)c1cc(CNCCO)cc(OC)c1C2=O [IXb-6, 3-[N-(2-hydroxyethyl)amino]methyl-1,6,8-trimethoxy-9,10-anthraquinone]
- IC50 ([1]; Homo sapiens, 0.2% DMSO): 110 µM
- IC50 ([3]; Homo sapiens, 0.5 h): 26 µM
- B/A [3]: 0.24
- IC50 [4, 5]: 12500 nM
- IC50 [4, 6]: 5.1 µg/mL
- IC50 [4, 7]: 17000 nM

Compound: CCNCc1cc(O)c2c(c1)C(=O)c1cc(OC)cc(O)c1C2=O [XIb-5, 3-(N-ethylamino)methyl-1,8-dihydroxy-6-methoxy-9,10-anthraquinone]
- IC50 ([1]; Homo sapiens, 0.2% DMSO): 2.1 µM
- IC50 ([3]; Homo sapiens, 0.5 h): 13 µM
- B/A [3]: 6.2
- IC50 [4, 5]: 440 nM
- IC50 [4, 6]: 0.18 µg/mL
- IC50 [4, 7]: 720 nM

— patent publication US5053431A, “Derivatives of chrysophanol as topoisomerase II inhibitors” (Sloan-Kettering Institute For Cancer Research, priority 1990, dated 1991)
